Data from publication PMC7762994 (Viruses, 2020).
Where two headings read alike, the source gives them in different places.

Columns and labels:
SW13 cells = test: Viability of SW13 cells by nuclei count in the HAZV antiviral assay; assay type: cell-based; details: Homo sapiens; HAZV, SW13, MOI 1, 24 h; read-out: Viability (nuclei count) EC50
Hazara virus (HAZV) [1] = test: microbe, parasite or virus in culture; assay type: cell-based; details: SW13, 24 h
HSPA1A [2] = molecular target: T1, HSPA1A (Homo sapiens, UniProt P0DMV8); test: TPP-TR in HAZV-infected SW13 cells; details: 20 μM, 4 h
T1 sequence (P0DMV8 whole entry): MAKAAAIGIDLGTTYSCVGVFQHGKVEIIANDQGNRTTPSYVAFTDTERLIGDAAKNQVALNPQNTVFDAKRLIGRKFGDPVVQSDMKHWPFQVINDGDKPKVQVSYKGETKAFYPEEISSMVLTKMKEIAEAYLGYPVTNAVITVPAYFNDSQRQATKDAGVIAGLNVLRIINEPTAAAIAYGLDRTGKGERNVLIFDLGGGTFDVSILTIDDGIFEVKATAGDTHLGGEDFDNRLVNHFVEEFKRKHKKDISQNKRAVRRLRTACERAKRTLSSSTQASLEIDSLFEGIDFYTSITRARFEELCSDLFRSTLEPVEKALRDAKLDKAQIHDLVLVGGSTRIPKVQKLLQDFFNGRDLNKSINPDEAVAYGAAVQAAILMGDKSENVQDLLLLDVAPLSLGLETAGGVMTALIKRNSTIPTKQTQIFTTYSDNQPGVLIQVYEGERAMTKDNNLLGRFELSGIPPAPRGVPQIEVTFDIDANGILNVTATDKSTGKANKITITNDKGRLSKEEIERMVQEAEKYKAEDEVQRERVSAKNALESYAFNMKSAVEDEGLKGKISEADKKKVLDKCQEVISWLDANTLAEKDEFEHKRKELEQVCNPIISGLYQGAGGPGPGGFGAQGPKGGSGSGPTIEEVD

CALR = molecular target: T2, CALR (Homo sapiens, UniProt P27797); test: 2D-TPP in U87 cells; assay type: binding; details: 1.5 h, stabilized, read-out: pEC50 of protein stabilization, CALR (converted)
T2 construct: endogenous in cells; host or cells: U87 cells

HARS2 = HARS2 (Homo sapiens, UniProt P49590); test: TPP-TR in HAZV-infected SW13 cells; details: read-out: ΔTm of HARS2
HARS2, sequence (P49590 34-506): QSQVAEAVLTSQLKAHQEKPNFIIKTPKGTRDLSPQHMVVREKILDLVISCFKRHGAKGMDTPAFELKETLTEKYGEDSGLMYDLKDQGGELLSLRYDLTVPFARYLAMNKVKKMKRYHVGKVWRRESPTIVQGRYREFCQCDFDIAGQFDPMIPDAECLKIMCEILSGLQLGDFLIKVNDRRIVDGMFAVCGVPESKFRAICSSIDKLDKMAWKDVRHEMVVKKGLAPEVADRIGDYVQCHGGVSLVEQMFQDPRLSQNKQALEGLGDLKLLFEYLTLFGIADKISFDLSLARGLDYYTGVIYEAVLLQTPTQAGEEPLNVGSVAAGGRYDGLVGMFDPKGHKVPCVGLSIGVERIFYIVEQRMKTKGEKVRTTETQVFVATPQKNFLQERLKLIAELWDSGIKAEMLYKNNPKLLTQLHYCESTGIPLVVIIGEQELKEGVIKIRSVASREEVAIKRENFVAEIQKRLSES

HSP90B1 = molecular target: T3, HSP90B1 (Homo sapiens, UniProt P14625); test: 2D-TPP in U87 cells; assay type: binding; details: 1.5 h, stabilized, read-out: pEC50 of protein stabilization, HSP90B1 (converted)
T3 construct: endogenous in cells; host or cells: U87 cells

CoV 229E = CoV 229E titer in Huh7 cells, end-point dilution assay; assay type: cell-based, Coronavirus 229E; details: MOI 5, 10 µM, 24 h
OGG1 [3] = molecular target: T4, OGG1 (Homo sapiens, UniProt O15527); test: Cellular thermal shift assay (CETSA), Western blot; assay type: binding; design: endogenous in cells; host or cells: SW13 or U87 cells
T4 sequence (O15527 whole entry): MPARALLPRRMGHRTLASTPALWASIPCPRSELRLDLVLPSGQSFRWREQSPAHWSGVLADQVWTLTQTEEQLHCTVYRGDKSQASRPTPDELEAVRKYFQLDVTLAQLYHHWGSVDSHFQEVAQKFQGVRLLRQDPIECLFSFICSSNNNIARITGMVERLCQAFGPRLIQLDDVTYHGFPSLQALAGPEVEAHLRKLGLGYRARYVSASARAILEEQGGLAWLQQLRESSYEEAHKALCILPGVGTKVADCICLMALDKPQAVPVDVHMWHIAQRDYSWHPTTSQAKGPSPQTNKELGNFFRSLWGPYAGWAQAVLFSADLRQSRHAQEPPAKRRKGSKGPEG

Hsp70 = molecular target: T5, Hsp70 (Homo sapiens, UniProt P0DMV8); test: Cellular thermal shift assay; assay type: binding; details: U87 and SW13 cells, 56 and 59 °C, CETSA-TR at 20 μM and dose dependently
T5 construct: endogenous in cells; host or cells: U87 or SW13 cells

DNAJB11 [4] = molecular target: T6, DNAJB11 (Homo sapiens, UniProt Q9UBS4); test: 2D-TPP in U87 cells
T6 sequence (Q9UBS4 23-358): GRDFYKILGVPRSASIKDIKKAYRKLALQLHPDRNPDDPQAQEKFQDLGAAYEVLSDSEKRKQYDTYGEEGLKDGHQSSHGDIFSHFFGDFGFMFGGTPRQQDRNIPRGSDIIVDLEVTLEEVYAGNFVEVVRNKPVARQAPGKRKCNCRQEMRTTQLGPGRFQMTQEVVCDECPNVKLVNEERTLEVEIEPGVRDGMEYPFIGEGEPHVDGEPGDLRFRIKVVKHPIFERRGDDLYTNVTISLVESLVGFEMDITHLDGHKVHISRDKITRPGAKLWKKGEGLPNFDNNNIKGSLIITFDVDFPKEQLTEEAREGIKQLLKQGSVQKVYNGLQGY

EDEM3 [5] = molecular target: T7, EDEM3 (Homo sapiens, UniProt Q9BZQ6); test: TPP-TR in HAZV-infected SW13 cells; details: 20 μM, 4 h
T7 sequence (Q9BZQ6 42-932): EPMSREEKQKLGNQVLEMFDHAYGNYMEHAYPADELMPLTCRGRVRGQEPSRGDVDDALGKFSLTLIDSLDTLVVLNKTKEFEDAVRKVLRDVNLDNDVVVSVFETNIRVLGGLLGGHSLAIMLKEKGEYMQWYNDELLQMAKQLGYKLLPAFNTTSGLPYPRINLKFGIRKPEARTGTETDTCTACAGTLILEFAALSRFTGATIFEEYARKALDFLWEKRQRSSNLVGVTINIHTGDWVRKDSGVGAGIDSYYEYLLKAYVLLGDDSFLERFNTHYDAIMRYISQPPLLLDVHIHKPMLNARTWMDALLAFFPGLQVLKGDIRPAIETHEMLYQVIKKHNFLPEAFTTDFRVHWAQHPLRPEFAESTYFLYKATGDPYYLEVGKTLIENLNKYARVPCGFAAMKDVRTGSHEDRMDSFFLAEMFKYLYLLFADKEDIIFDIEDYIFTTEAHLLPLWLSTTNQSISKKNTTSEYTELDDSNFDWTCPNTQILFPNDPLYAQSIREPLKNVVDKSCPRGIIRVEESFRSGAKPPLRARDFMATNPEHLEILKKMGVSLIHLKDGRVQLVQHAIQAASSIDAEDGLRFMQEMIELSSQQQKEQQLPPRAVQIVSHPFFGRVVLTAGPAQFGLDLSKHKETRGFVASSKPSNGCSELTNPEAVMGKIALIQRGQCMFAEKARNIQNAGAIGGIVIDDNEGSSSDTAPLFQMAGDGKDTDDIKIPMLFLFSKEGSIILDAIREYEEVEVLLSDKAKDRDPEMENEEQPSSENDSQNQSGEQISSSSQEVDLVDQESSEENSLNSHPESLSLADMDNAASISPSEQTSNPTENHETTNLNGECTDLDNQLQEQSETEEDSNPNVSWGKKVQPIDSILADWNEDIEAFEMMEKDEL

DNAJC13 = molecular target: T8, DNAJC13 (Homo sapiens, UniProt O75165); test: 2D-TPP in U87 cells; assay type: binding; details: 1.5 h, stabilized, read-out: pEC50 of protein stabilization, DNAJC13 (converted)
T8 construct: endogenous in cells; host or cells: U87 cells

DNAJC3 [6] = molecular target: T9, DNAJC3 (Homo sapiens, UniProt Q13217); test: 2D-TPP in U87 cells
T9 sequence (Q13217 32-504): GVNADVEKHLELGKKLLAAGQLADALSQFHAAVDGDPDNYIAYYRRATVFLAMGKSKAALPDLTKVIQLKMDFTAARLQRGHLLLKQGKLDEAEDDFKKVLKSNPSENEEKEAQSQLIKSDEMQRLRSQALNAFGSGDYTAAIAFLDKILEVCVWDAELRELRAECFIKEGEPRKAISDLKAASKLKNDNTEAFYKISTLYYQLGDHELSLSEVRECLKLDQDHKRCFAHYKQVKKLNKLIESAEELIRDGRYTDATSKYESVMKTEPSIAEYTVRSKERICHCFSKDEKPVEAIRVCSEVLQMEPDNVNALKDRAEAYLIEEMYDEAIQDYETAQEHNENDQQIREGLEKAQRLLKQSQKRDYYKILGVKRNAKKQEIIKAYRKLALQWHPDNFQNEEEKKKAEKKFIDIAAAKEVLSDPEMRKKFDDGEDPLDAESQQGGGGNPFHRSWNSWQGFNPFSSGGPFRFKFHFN

DNAJB11 [7] = molecular target: T6, DNAJB11; test: TPP-TR in HAZV-infected SW13 cells
HSPA2 = molecular target: T10, HSPA2 (Homo sapiens, UniProt P54652); test: 2D-TPP in U87 cells; assay type: binding; details: 1.5 h, destabilized, read-out: pEC50 of protein destabilization, HSPA2 (converted)
T10 construct: endogenous in cells; host or cells: U87 cells
T10 sequence (P54652 whole entry): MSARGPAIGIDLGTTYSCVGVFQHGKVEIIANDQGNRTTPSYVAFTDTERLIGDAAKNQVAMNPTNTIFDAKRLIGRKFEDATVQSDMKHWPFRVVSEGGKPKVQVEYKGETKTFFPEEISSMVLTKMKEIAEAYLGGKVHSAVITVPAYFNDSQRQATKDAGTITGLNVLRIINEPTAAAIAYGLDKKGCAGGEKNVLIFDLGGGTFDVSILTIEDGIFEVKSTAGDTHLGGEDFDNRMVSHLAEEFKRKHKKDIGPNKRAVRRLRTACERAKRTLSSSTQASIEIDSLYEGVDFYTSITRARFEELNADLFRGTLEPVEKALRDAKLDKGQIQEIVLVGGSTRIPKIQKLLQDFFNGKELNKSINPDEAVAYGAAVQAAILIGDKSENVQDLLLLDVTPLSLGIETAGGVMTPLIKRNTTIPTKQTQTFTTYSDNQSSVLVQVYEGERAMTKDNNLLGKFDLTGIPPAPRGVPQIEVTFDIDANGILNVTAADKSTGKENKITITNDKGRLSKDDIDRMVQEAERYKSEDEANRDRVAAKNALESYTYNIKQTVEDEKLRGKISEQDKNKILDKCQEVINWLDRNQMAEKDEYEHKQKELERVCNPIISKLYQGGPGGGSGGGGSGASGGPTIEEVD

EDEM3 [8] = molecular target: T7, EDEM3; test: 2D-TPP in U87 cells; assay type: binding; design: endogenous in cells; host or cells: U87 cells; details: 1.5 h, stabilized, read-out: pEC50 of protein stabilization, EDEM3 (converted)
Hazara virus (HAZV) [9] = test: microbe, parasite or virus in culture; assay type: cell-based; details: Hazara virus
HYOU1 = molecular target: T11, HYOU1 (Homo sapiens, UniProt Q9Y4L1); test: 2D-TPP in U87 cells; assay type: binding; details: 1.5 h, stabilized, read-out: pEC50 of protein stabilization, HYOU1 (converted)
T11 construct: endogenous in cells; host or cells: U87 cells

OGG1 [10] = molecular target: T4, OGG1; test: In vitro OGG1 activity assay; assay type: biochemical
[11] = molecular target: T12, Hsp70 - HAZV NP interaction (Homo sapiens, UniProt P0DMV8); test: Hsp70 immunoprecipitation in HAZV-infected Hek293T cells; assay type: cell-based; details: HAZV MOI 1, 20 μM, 1 h, statistically not significant
T12 construct: endogenous in cells; host or cells: HEK293T cells infected with HAZV (MOI 1)

HSPA9 = molecular target: T13, HSPA9 (Homo sapiens, UniProt P38646); test: 2D-TPP in U87 cells; assay type: binding
T13 construct: endogenous in cells; host or cells: U87 cells
T13 sequence (P38646 47-679): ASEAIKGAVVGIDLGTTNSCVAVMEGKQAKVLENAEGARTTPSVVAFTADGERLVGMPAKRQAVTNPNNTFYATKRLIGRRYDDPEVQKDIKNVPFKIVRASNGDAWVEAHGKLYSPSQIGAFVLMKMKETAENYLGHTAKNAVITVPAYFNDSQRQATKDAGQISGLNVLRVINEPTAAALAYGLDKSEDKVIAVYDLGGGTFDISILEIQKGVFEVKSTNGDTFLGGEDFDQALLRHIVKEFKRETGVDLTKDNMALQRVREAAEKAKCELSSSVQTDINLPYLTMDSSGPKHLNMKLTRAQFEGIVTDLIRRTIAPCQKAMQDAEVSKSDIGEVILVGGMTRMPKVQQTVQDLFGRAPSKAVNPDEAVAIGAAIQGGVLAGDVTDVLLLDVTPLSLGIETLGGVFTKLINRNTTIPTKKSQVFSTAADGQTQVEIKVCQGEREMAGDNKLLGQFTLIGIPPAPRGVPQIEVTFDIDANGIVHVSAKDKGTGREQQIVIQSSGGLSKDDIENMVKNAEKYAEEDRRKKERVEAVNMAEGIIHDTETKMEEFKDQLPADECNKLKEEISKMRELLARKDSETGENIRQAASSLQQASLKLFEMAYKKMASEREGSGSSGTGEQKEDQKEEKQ

HSPA12A = molecular target: T14, HSPA12A (Homo sapiens, UniProt O43301); test: 2D-TPP in U87 cells; assay type: binding; details: 1.5 h, destabilized, read-out: pEC50 of protein destabilization, HSPA12A (converted)
T14 construct: endogenous in cells; host or cells: U87 cells
T14 sequence (O43301 whole entry): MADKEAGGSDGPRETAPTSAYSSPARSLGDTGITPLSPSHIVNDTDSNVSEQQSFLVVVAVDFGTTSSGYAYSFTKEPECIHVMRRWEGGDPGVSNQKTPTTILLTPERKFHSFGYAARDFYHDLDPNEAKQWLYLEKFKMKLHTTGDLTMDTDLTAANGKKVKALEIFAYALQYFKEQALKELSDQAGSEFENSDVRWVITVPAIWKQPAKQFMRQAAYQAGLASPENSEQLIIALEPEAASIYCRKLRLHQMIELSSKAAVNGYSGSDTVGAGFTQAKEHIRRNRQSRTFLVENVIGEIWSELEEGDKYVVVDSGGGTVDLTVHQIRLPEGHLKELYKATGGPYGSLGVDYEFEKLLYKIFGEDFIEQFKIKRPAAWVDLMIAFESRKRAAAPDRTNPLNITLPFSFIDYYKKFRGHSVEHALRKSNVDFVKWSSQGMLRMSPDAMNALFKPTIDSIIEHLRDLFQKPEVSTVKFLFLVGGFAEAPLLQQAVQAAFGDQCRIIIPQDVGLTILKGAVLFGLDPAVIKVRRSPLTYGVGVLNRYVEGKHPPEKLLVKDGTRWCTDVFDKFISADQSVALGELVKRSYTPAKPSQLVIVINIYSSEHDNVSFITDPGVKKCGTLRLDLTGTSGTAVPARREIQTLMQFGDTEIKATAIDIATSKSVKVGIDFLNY

HSPA1A [12] = molecular target: T1, HSPA1A; test: 2D-TPP in U87 cells
DNAJC3 [13] = molecular target: T9, DNAJC3; test: TPP-TR in HAZV-infected SW13 cells; details: 20 μM, 4 h

`CCOC(=O)c1cnn(-c2cccc3c2[nH]c(=O)n3C2CCN(C(=O)Nc3ccc(I)cc3)CC2)c1` [TH6744, ethyl 1-(1-(1-((4-iodophenyl)carbamoyl)piperidin-4-yl)-2-oxo-2,3-dihydro-1H-benzo[d]imidazol-4-yl)-1H-pyrazole-4-carboxylate] showed an EC50 (SW13 cells) of 37.4 µM, an IC50 (Hazara virus (HAZV) [1]; read-out: Antiviral on primary infection IC50 [µM]) of 10.9 µM and an EC50 (Hazara virus (HAZV) [1]; read-out: EC50 Infected cells (primary infection)) of 10.9 µM. The inhibition at 10 µM (Hazara virus (HAZV) [1]; read-out: Viral inhibition on primary infection (%)) was 85%, the “thermal stability change of HSPA1A” value (HSPA1A [2]) was “destabilized” and the EC50 (CALR) was 3.98 µM. The ΔTm at 20 µM (HARS2) was -9.2 °C, the EC50 (HSP90B1) was 6.31 µM and the “reduction of CoV 229E titer” value (CoV 229E) was 95%. For the same compound, the “binding to OGG1 (CETSA, Western blotting)” value (OGG1 [3]; SW13 cells, 20 μM) was “binding to its known target OGG1”, the “binding to OGG1 (isothermal dose-response CETSA at 47 °C, Western blotting)” value (OGG1 [3]; U87 cells) was “binding to its known target OGG1 in U87 cells” and the “Hsp70 thermal stability (CETSA)” value (Hsp70) was “Hsp70 destabilization”. The EC50 (DNAJB11 [4]) was 7.94 µM, the “thermal stability change of EDEM3” value (EDEM3 [5]) was “stabilized” and the EC50 (DNAJC13) was 1 µM. For the same compound, the EC50 (DNAJC3 [6]) was 3.16 µM, the “thermal stability change of DNAJB11” value (DNAJB11 [7]; 20 μM, 4 h) was “stabilized” and the ΔTm at 20 µM (DNAJB11 [7]; read-out: ΔTm of DNAJB11) was 13.6 °C. The EC50 (HSPA2) was 3.16 µM, the EC50 (EDEM3 [8]) was 1 µM and the IC50 (Hazara virus (HAZV) [9]; SW13, 24 h, read-out: Antiviral on titer (µM) IC50 [µM]) was 2.9 µM. It also gave an EC50 (Hazara virus (HAZV) [9]; SW13, read-out: EC50 Viral titer) of 2.9 µM, an inhibition at 10 µM (Hazara virus (HAZV) [9]; Vero, 24 h, read-out: Viral inhibition on titer (%)) of 90% and an EC50 (HYOU1) of 10 µM. The IC50 (OGG1 [10]) was 0.68 µM, the “OGG1 activity (in words)” value (OGG1 [10]; Figure 3A) was “Nanomolar OGG1activity” and the “increase of HAZV NP interaction with Hsp70 (signal intensity)” value [11] was 2 fold. For the same compound, the “thermal stability change of HSPA9” value (HSPA9) was “destabilized”, the EC50 (HSPA12A) was 12.6 µM and the EC50 (HSPA1A [12]) was 3.16 µM. The “thermal stability change of DNAJC3” value (DNAJC3 [13]) was “stabilized”.
